Data as given in patent EP0216028A2, “Use of anthranilic-acid derivatives as anthelmintic medicaments” (HOECHST AKTIENGESELLSCHAFT, priority 1985, dated 1987).
Like-named read-outs stand apart in the source and are kept apart here.

Columns and labels:
[1] = test system: Leberegel (Fasciola hepatica); test: Chemotherapeutic test in sheep infected with liver fluke (egg count reduction / worm burden); assay type: in vivo; conditions: Wirtstier: Schaf, p.o.; for minimal effective dose: Fasciola hepatica, po, read-out: Dosis (>90% Reduktion der Wurmbürde); for Chemotherapeut. Index: quotient of Dosis tolerata maxima and Dosis curativa minima
Excerpt: (§1) Zur Feststellung der anthelminthischen Wirkung der Verbindungen der Formel I wurden chemotherapeutische Untersuchungen an ca. 25-30 kg schweren Schaflämmern ausgeführt, die entweder mit Metazerkarien von Fasciola hepatica oder mit Larven von Magen-Darm-Strongyliden, vornehmlich Haemonchus contortus und Trichostongylus colubriformis, oral infiziert worden waren. Nach Ablauf der Präpatenzperiode (Zeit zwischen Infektion und Geschlechtsreife der Parasiten mit beginnender Ausscheidung von Eiern oder Larven) wurde der Parasitenbefall durch Kotuntersuchungen gesichert. […] Unmittelbar danach wurde die Behandlung der Schafe (im allgemeinen 3 - 4 Tiere pro Wirkstoff, mindestens aber 2) vorgenommen. Den Tieren wurde oral oder parenteral eine Suspension von unterschiedlicher Wirkstoffmenge in jeweils 10 ml einer 1%igen Carboxymethylcellulose-Suspension appliziert. Jeweils am 7., 14. und 28. Tag nach der Behandlung wurde wiederum nach den vorstehend angegebenen Verfahren die Eizahl pro Gramm Kot ermittelt und ihre prozentuale Abnahme im Vergleich zum Ausgangswert vor der Behandlung errechnet. Mit einigen Verbindungen wurden außerdem beim Fasciola-Befall noch eine zusätzliche Prüftechnik angewandt: Nach Abschluß der Präpatenzperiode wurde bei Fasciola-positiven Schafen ein künstlicher Gallengang geschaffen, der am Ausgang der Gallenblase ein Sieb enthielt, so daß die nach der Behandlung abgetöteten Leberegel in der Gallenblase aufgefangen werden konnten. Vier bis sieben Tage nach der Behandlung wurden die so operierten und dann behandelten Schafe getötet, die abgetöteten Leberegel in der Gallenblase sowie noch eventuell in der Leber vorhandene lebende Leberegel gezählt und von der gesamten Wurmbürde der Prozentsatz der abgetöteten Parasiten berechnet.
(§2) Der chemotherapeutische Index gibt den Quotienten aus Do- sis tolerata maxima und Dosis curativa minima an.

[2] = test system: Magen-Darm-Würmer(Ostertagia, Haemonchur, Trichostrongylus, Cooperia, jeweils verschiedene Spezies); test: Chemotherapeutic test in sheep infected with gastrointestinal worms (egg count reduction / worm burden); assay type: in vivo; conditions: Tabelle 2, Wirtstier: Schaf; for Chemotherapeut. Index: quotient of Dosis tolerata maxima and Dosis curativa minima; for minimal effective dose: Trichostrongylus, read-out: Dosis (>90% Reduktion der Wurmbürde)
Excerpt: as §1, §2

[3] = Tabelle 3 (comparison of isomers)
[4] = Tabelle 1, minimum curative dose

SMILES	minimal effective dose [1, 3]	Chemotherapeut. Index [1, 3]	minimal effective dose [1, 4]	Chemotherapeut. Index ([1]; Tabelle 1)	also measured
O=C(Nc1ccc(Cl)cc1)c1ccc(Cl)cc1NS(=O)(=O)c1ccc(Cl)cc1 [V1, 4-Chlor-2-[(4-chlor-phenylsulfonyl)-amino]-benzoesäure-(4-chloranilid), reference compound]	30 mg/kg	2	–	–	–
O=C(Nc1ccc(Cl)cc1)c1ccc(NS(=O)(=O)c2ccc(Cl)cc2)cc1Cl [V2, reference compound]	20 mg/kg	3	–	–	–
O=C(Nc1ccc(Cl)cc1)c1ccc(NS(=O)(=O)c2ccc(Cl)cc2)c(Cl)c1 [V3, reference compound]	30 mg/kg	2	–	–	–
O=C(Nc1ccc(Cl)cc1)c1ccc(Cl)c(NS(=O)(=O)c2ccc(Cl)cc2)c1 [V4, 4-Chlor-3-[(4-Chlorphenylsulfonyl)-amino]-benzoesäure-(4-chlor-anilid), reference compound]	15 mg/kg	4	–	–	–
O=C(Nc1ccc(Cl)cc1)c1cc(NS(=O)(=O)c2ccc(Cl)cc2)ccc1Cl [V5, reference compound]	30 mg/kg	2	–	–	–
O=C(Nc1ccc(Cl)c(Cl)c1)c1ccc(Cl)cc1NS(=O)(=O)c1ccc(Cl)cc1 [V6, 4-Chlor-2-[(4-chlor-phenylsulfonyl)-amino]-benzoesäure-(3,4-dichlor-anilid), reference compound]	30 mg/kg	2	–	–	–
O=C(Nc1ccc(F)cc1)c1cc(NS(=O)(=O)c2ccc(Cl)cc2)ccc1Cl [V7, 2-Chlor-5-[(4-chlor-phenylsulfonyl)-amino]-benzoesäure-(4-fluor-anilid), reference compound]	30 mg/kg	2	–	–	–
O=C(Nc1ccc(Cl)cc1)c1ccc(NS(=O)(=O)c2ccc(Cl)cc2)cc1Br [V8, reference compound]	30 mg/kg	2	–	–	–
O=C(Nc1ccc(Cl)cc1)c1ccc(Br)cc1NS(=O)(=O)c1ccc(Cl)cc1 [V9, 4-Brom-2-[(4-chlor-phenylsulfonyl)-amino]-benzoesäure-(4-chlor-anilid), reference compound]	20 mg/kg	3	–	–	–
O=C(Nc1ccc(Cl)c(Cl)c1)c1ccc(NS(=O)(=O)c2ccc(Cl)cc2)cc1Cl [V10, reference compound]	10 mg/kg	5	–	–	–
O=C(Nc1ccc(Cl)cc1)c1cc(Cl)ccc1NS(=O)(=O)c1ccc(Cl)cc1 [Verbindung 1]	1.5 mg/kg	über 25	1.5 mg/kg	über 25	–
O=C(Nc1ccc(Cl)cc1Cl)c1cc(Cl)ccc1NS(=O)(=O)c1ccc(Cl)cc1 [Verbindung 2, 5-Chlor-2-[(4-chlor-phenylsulfonyl)-amino]-benzoesäure-(2,4-dichlor-anilid)]	–	–	7.5 mg/kg	8	–
O=C(Nc1ccc(Cl)c(Cl)c1)c1cc(Cl)ccc1NS(=O)(=O)c1ccc(Cl)cc1 [Verbindung 3, 5-Chlor-2-t(4-chlor-phenylsulfonyl)-aminoJ-benzoesäure-(3,4-dichloranilid)]	5 mg/kg	10	5 mg/kg	10	–
O=C(Nc1ccc(F)cc1)c1cc(Cl)ccc1NS(=O)(=O)c1ccc(Cl)cc1 [Verbindung 4]	–	20	2.5 mg/kg	20	Dosis (>90% Reduktion der Wurmbürde) [1, 3]: 2,5 mg/kg Körpergewicht
O=C(Nc1ccc(Br)cc1)c1cc(Cl)ccc1NS(=O)(=O)c1ccc(Cl)cc1 [Verbindung 5, 5-Chlor[(4-chlor-phenylsulfonyl)-amino]-benzoesäure-(4-brom-anilid)]	–	–	5 mg/kg	10	–
CN(C(=O)c1cc(Cl)ccc1NS(=O)(=O)c1ccc(Cl)cc1)c1ccc(Cl)cc1 [Verbindung 6]	–	–	–	–	Chemotherapeut. Index ([2]; p.o.): 5; minimal effective dose ([2]; po, p.o.): 10 mg/kg
O=C(Nc1ccc(Cl)cc1)c1cc(Br)ccc1NS(=O)(=O)c1ccc(Cl)cc1 [Verbindung 9, 5-Brom-2-[(4-chlor-phenylsulfonyl)-amino]-benzoesäure-(4-chlor-anilid)]	2.5 mg/kg	20	5 mg/kg	10	–

SMILES	minimal effective dose [1, 3]	Chemotherapeut. Index [1, 3]	minimal effective dose [1, 4]	Chemotherapeut. Index ([1]; Tabelle 1)	also measured
O=C(Nc1ccc(Cl)cc1)c1cc(Cl)c(Cl)cc1NS(=O)(=O)c1ccc(Cl)cc1 [Verbindung 12, 4,5-Dichlor-2-[(4-chlor-phenylsulfonyl)-amino]-benzoesäure-(4-chlor-anilid)]	–	–	5 mg/kg	10	–
O=C(Nc1ccc(F)cc1)c1cc(Cl)cc(Cl)c1NS(=O)(=O)c1ccc(Cl)cc1 [Verbindung 14, 3,5-Dichlor-2-[(4-chlor-phenylsulfonyl)-amino]-benzoesäure-(4-fluor-anilid)]	–	–	7.5 mg/kg	5	–
CCCCCCCCCCCCNC(=O)c1cc(Cl)cc(Cl)c1NS(=O)(=O)c1ccc(Cl)cc1 [Verbindung 16]	–	–	–	–	Chemotherapeut. Index ([2]; p.o.): 10; minimal effective dose ([2]; po, p.o.): 5 mg/kg
CCCCCCCCCCCCNC(=O)c1cc(Cl)ccc1NS(=O)(=O)c1ccc(Cl)cc1 [Verbindung 17, 5-Chlor-2-[(4-chlor-phenylsulfonyl)-amino]-benzoesäure-dodecylamid]	–	–	2.5 mg/kg	20	–
CCCCCCCCCCCCN(C)C(=O)c1cc(Cl)ccc1NS(=O)(=O)c1ccc(Cl)cc1 [Verbindung 19, 5-Chlor-2-[(4-chlor-phenylsulfonyl)-amino]-benzoesäure-(N-methyl-dodecylamid)]	–	–	7.5 mg/kg	5	–
O=C(Nc1ccc(Br)cc1)c1cc(Cl)ccc1NS(=O)(=O)c1ccc(Br)cc1 [Verbindung 21]	–	–	–	–	Chemotherapeut. Index ([2]; s.c.): über 6; minimal effective dose ([2]; sc, s.c.): 5 mg/kg
O=C(Nc1ccc(Cl)cc1)c1cc(Cl)ccc1NS(=O)(=O)c1ccc(F)cc1 [Verbindung 22, 5-Chlor-2-[(4-fluor-phenylsulfonyl)-amino]-benzoesäure-(4-chloranilid)]	–	–	–	–	Chemotherapeut. Index ([2]; p.o.): 5; minimal effective dose ([2]; po, p.o.): 10 mg/kg
O=C(Nc1ccc(Cl)cc1)c1cc(Cl)ccc1NS(=O)(=O)c1ccc(Cl)cc1Cl [Verbindung 25, 5-Chlor-2-[(2,4-dichlor-phenylsulfonyl)-amino]-benzoesäure-(4-chloranilid)]	–	–	7.5 mg/kg	6	–
O=C(Nc1ccc(Cl)cc1)c1cc(Cl)ccc1NS(=O)(=O)c1ccc(Cl)c(Cl)c1 [Verbindung 26, 5-Chlor-2-[(3,4-dichlor-phenylsulfonyl)-amino]-benzoesäure-(4-chlor-anilid)]	–	über 25	1 mg/kg	über 25	Dosis (>90% Reduktion der Wurmbürde) [1, 3]: 1 mg/kg Körpergewicht
CCCCCCCCNC(=O)c1cc(Cl)ccc1NS(=O)(=O)c1ccc(Cl)c(Cl)c1 [Verbindung 27, 5-Chlor-2-[(3,4-dichlor-phenylsulfonyl)-amino]-benzoesäure-octylamid]	–	–	7.5 mg/kg	8	–
CCN(C(=O)c1cc(Cl)ccc1NS(=O)(=O)c1ccc(Cl)c(Cl)c1)c1ccc(Cl)cc1 [Verbindung 29]	–	–	1.5 mg/kg	über 25	–
CN(c1ccc(Cl)cc1C(=O)Nc1ccc(Cl)cc1)S(=O)(=O)c1ccc(Cl)c(Cl)c1 [Verbindung 30, 5-Chlor-2-[(3,4-dichlor-phenylsulfonyl)-methylamino]-benzoesäure-(4-chlor-anilid)]	–	–	5 mg/kg	10	–
CCCCCCCCCCCCCCCCCCNC(=O)c1cc(Cl)ccc1NS(=O)(=O)c1ccc(Cl)c(Cl)c1 [Verbindung 32, 5-Chlor-2-[(3,4-dichlor-phenyl-sulfonyl)-amino]-benzoesäure-octa-decylamid]	–	–	5 mg/kg	10	–
CCCCCCCCCCCCN(C)C(=O)c1cc(Cl)ccc1NS(=O)(=O)c1ccc(Cl)c(Cl)c1 [Verbindung 33, 5-Chlor-2-[(3,4-dichlor-phenylsulfonyl)-amino]-benzoesäure-(N-methyl-dodecylamid)]	–	–	–	–	Chemotherapeut. Index ([2]; s.c.): über 6; minimal effective dose ([2]; sc, s.c.): 5 mg/kg
O=C(Nc1ccc(C(F)(F)F)cc1)c1cc(Cl)ccc1NS(=O)(=O)c1ccc(Cl)c(Cl)c1 [Verbindung 34, 5-Chlor-2-[(3,4-dichlor-phenylsulfonyl)-amino]-benzoesäure-(4-trifluormethyl-anilid)]	–	–	2.5 mg/kg	20	–
CCS(=O)(=O)c1ccc(NS(=O)(=O)c2ccc(Cl)c(Cl)c2)c(C(=O)Nc2ccc(Cl)cc2)c1 [Verbindung 40]	–	–	5 mg/kg	10	–
